For orientation: melting point means the temperature, or range, at which the solid turns liquid.

On to `CN(C)c1cccc(-c2nnc(-c3cccc(C(=O)O)c3)o2)c1` [Compound 2], for which the melting point is 187 to 189 °C.
With `CN(C)c1cccc(-c2nnc(-c3ccc(C(=O)O)cc3)o2)c1` [Compound 3] the figure was 247 to 248 °C; with `CN(C)c1ccc(-c2nnc(-c3cccc(C(=O)O)c3)o2)cc1` [Compound 4], 268 to 270 °C.
With `CC(C)c1ccc(-c2nnc(-c3ccc(C(=O)O)cc3)o2)cc1` [Compound 5] the figure was 262 to 265 °C.
With `CC(C)c1ccc(-c2nnc(-c3cccc(C(=O)O)c3)o2)cc1` [Compound 6, 3-[5-(4-isopropylphenyl)-[1,3,4]oxadiazol-2-yl]benzoic acid] the figure was 202 to 204 °C; with `CC(C)c1cccc(-c2nnc(-c3ccc(C(=O)O)cc3)o2)c1` [Compound 7], 227 to 229 °C.
For `CS(=O)(=O)Nc1cccc(-c2nnc(-c3ccc(C(=O)O)cc3)o2)c1` [Compound 12], the melting point is more than 270 °C.
In the case of `Cc1ccc(S(=O)(=O)Nc2cccc(-c3nnc(-c4ccc(C(=O)O)cc4)o3)c2)cc1` [Compound 13, 4-{5-[3-(toluene-4-sulfonylamino)phenyl]-[1,3,4]oxadiazol-2-yl}benzoic acid], the melting point was more than 275 °C.
With `CC(=O)Nc1cccc(-c2nnc(-c3ccc(C(=O)O)cc3)o2)c1` [Compound 14] the figure was more than 275 °C; with `O=C(O)c1cccc(-c2nnc(-c3ccc(N4CCCCC4)cc3)o2)c1` [Compound 83], 275 to 277 °C; with `O=C(O)c1cccc(-c2nnc(-c3ccc(N4CCN(c5ccccc5)CC4)cc3)o2)c1` [Compound 84], 279 to 282 °C.
With `CN(C)c1ccc(Cc2nnc(-c3cccc(C(=O)O)c3)o2)cc1` [Compound 85] the figure was 220 to 222 °C.
The result for `CN(C)c1ccc(Cc2nnc(-c3ccc(C(=O)O)cc3)o2)cc1` [Compound 86] reads 243 to 245 °C; that for `CC(C)(C)c1ccc(-c2nc(-c3ccc(C(=O)O)cc3)no2)cc1` [Compound 141], 237 to 239 °C; that for `O=C(O)c1cccc(-c2nnc(-c3ccc(Cl)nc3)o2)c1` [Compound 222], 278 to 282 °C.
On to `CN(C)c1ccc(-c2nnc(-c3cccc(C(=O)O)c3)o2)cn1` [Compound 223], for which the melting point fell in the range of 272 to 274 °C.
The result for `CN(C)c1cc(-c2nnc(-c3ccc(C(=O)O)cc3)o2)ccn1` [Compound 224] reads 240 to 250 °C; that for `O=C(O)c1ccc(-c2nnc(-c3ccnc(Cl)c3)o2)cc1` [Compound 225], more than 285 °C.
With `O=C(O)c1cccc(-c2nnc(-c3ccc(Cl)nc3Cl)o2)c1` [Compound 272] the figure was 205 to 208 °C; with `CC(C)c1ccc(-c2coc(-c3cccc(C(=O)O)c3)n2)cc1` [Compound 276], 235 to 237 °C; with `CN(C)C(=O)c1ccc(-c2nnc(-c3ccc(C(=O)O)cc3)o2)cc1` [Compound 278], more than 310 °C.
For the compound `CN(C)C(=O)c1ccc(-c2nnc(-c3cccc(C(=O)O)c3)o2)cc1` [Compound 279], the melting point lay in the range of 228 to 235 °C.
The result for `O=C(O)c1cccc(-c2nnc(-c3ccc(N4CCCC4)cc3)o2)c1` [Compound 280] reads 274 to 276 °C.
`Cc1cccc(-c2ccc(-c3nnc(-c4cccc(C(=O)O)c4)o3)cn2)c1` [Compound 282] returned a melting point of 274 to 275 °C.
With `CC(C)c1ccc(NC(=O)c2nnc(-c3cccc(C(=O)O)c3)o2)cc1` [Compound 283] the figure was 220 to 226 °C.
The result for `CC(C)c1ccc(NC(=O)c2nnc(-c3ccc(C(=O)O)cc3)o2)cc1` [Compound 284] reads 282 to 291 °C.
With `O=C(O)c1cccc(-c2nnc(-c3ccc(C(=O)N4CCCCC4)cc3)o2)c1` [Compound 285] the figure was 253 to 256 °C.
`O=C(O)c1ccc(-c2nnc(-c3ccc(C(=O)N4CCCCC4)cc3)o2)cc1` [Compound 286]: the melting point is more than 310 °C.
Take `CC(C)c1ccc(-c2cc(-c3cccc(C(=O)O)c3)no2)cc1` [Compound 290]: the melting point is 222 to 225 °C.
`CC(C)c1ccc(-c2cc(-c3cccc(C(=O)O)c3)on2)cc1` [Compound 291] gave a melting point of 200 to 212 °C.
With `O=C(O)c1ccc(-c2nnc(-c3ccnc(Br)c3)o2)cc1` [Compound 292] the figure was 275 to 278 °C; with `O=C(O)c1cccc(-c2nnc(-c3ccc(Br)nc3)o2)c1` [Compound 293], 274 to 275 °C.
With `O=C(O)c1cccc(-c2nnc(-c3cc4ccccc4[nH]3)o2)c1` [Compound 315] the figure was more than 310 °C; with `O=C(O)c1cccc(-c2nnc(-c3ccc4[nH]ccc4c3)o2)c1` [Compound 316], more than 270 °C; with `O=C(O)c1cccc(-c2nnc(-c3ccc4cc[nH]c4c3)o2)c1` [Compound 317], > 290 °C (dec.).
The result for `O=C(O)c1cccc(-c2nnc(-c3cccc4[nH]ccc34)o2)c1` [Compound 318] reads more than 310 °C; that for `O=C(O)c1cccc(-c2nnc(-c3c[nH]c4ccccc34)o2)c1` [Compound 319], 304 to 320 °C; that for `CC(C)c1ccc(-c2nnc(-c3cccc(C(=O)O)c3Cl)o2)cc1` [Compound 401], 152 to 155 °C.
`COc1ccc(-c2nnc(-c3ccc(C(C)C)cc3)o2)cc1C(=O)O` [Compound 402] registered a melting point of 174 to 177 °C.
With `O=C(O)c1cccc(-c2nc(-c3ccc(Br)cc3)n[nH]2)c1` [Compound 423] the figure was 309 to 311 °C; with `O=C(O)c1cccc(-c2nc(-c3ccccc3F)n[nH]2)c1` [Compound 425], more than 310 °C.
For `O=C(O)c1cccc(-c2nc(-c3ccc(F)cc3)n[nH]2)c1` [Compound 426], the melting point was more than 310 °C.
The result for `O=C(O)c1cccc(-c2nc(-c3ccccc3)n[nH]2)c1` [Compound 427] reads more than 300 °C; that for `O=C(O)c1cccc(-c2nc(-c3cccnc3)n[nH]2)c1` [Compound 428], more than 310 °C; that for `O=C(O)c1cccc(-c2nc(-c3ccc(-c4ccccc4)cc3)n[nH]2)c1` [Compound 429], more than 300 °C.
The result for `O=C(O)c1cccc(-c2nc(-c3ccccc3O)n[nH]2)c1` [Compound 455] reads more than 300 °C.
The result for `O=C(O)c1cccc(-c2nc(-c3ccc(C(F)(F)F)cc3)n[nH]2)c1` [Compound 456] reads 235 to 238 °C.
Regarding `Cc1ccc(-c2n[nH]c(-c3cccc(C(=O)O)c3)n2)cc1` [Compound 457], the melting point was more than 300 °C.
The result for `COc1cccc(-c2n[nH]c(-c3cccc(C(=O)O)c3)n2)c1` [Compound 458] reads 247 to 250 °C; that for `COc1ccccc1-c1n[nH]c(-c2cccc(C(=O)O)c2)n1` [Compound 459], 287 to 290 °C.
`COc1ccc(-c2n[nH]c(-c3cccc(C(=O)O)c3)n2)cc1OC` [Compound 460] yielded a melting point of 275 to 278 °C.
With `CCOc1ccc(-c2n[nH]c(-c3cccc(C(=O)O)c3)n2)cc1` [Compound 461] the figure was 295 to 298 °C; with `O=C(O)c1cccc(-c2nc(-c3cccs3)n[nH]2)c1` [Compound 462], 282 to 285 °C.
With `O=C(O)c1cccc(-c2cc(-c3ccccc3F)on2)c1` [Compound 463] the figure was 221 to 222 °C; with `COC(=O)c1cccc(-c2cc(-c3ccccc3F)on2)c1` [Compound 464], 112 to 113.5 °C.
With `O=C(O)c1cccc(-c2cc(-c3cccc(F)c3)on2)c1` [Compound 475], the melting point is 242 to 243 °C.
Regarding `O=C(O)c1cccc(-c2cc(-c3ccc(F)cc3)on2)c1` [Compound 476], the melting point was in the range of 266.5 to 268 °C.
With `O=C(O)c1cccc(-c2cc(-c3ccccc3)on2)c1` [Compound 477] the figure was 245 to 247 °C; with `O=C(O)c1cccc(-c2cc(-c3ccc(F)cc3F)on2)c1` [Compound 478], 260 to 262 °C.
As to `COc1ccc(-c2cc(-c3cccc(C(=O)O)c3)no2)cc1` [Compound 480], the melting point fell in the range of 249.5 to 251 °C.
With `COc1cccc(-c2cc(-c3cccc(C(=O)O)c3)no2)c1` [Compound 481] the figure was 201 to 203 °C; with `O=C(O)c1cccc(-c2cc(-c3ccc(Br)cc3F)on2)c1` [Compound 482], 283.5 to 285 °C.
With `O=C(O)c1cccc(-c2noc(-c3ccccc3)c2C(=O)O)c1` [Compound 483] the figure was 255 to 257 °C; with `O=C(O)c1cccc(-c2noc(-c3ccccc3)c2CO)c1` [Compound 484], 215 to 216 °C; with `O=C(O)c1cccc(-c2noc(-c3ccccc3)c2C=NO)c1` [Compound 486], 198 to 202 °C.
With `N#Cc1c(-c2cccc(C(=O)O)c2)noc1-c1ccccc1` [Compound 487] the figure was 249 to 250 °C; with `O=C(O)c1cccc(-c2cc(-c3ccc(F)cc3F)no2)c1` [Compound 499], more than 278.5 °C.
Consider `COc1ccc(-c2cc(-c3cccc(C(=O)O)c3)on2)cc1` [Compound 500], for which the melting point fell in the range of 246 to 247 °C.
The result for `O=C(O)c1cccc(-c2cc(-c3ccccc3F)no2)c1` [Compound 501] reads 231 to 232 °C; that for `O=C(O)c1cccc(-c2cc(-c3cccc(F)c3)no2)c1` [Compound 502], 264 to 265 °C.
With `O=C(O)c1cccc(-c2cc(-c3ccc(F)cc3)no2)c1` [Compound 504] the figure was 273 to 274.5 °C.
The result for `Cc1ccc(-c2cc(-c3cccc(C(=O)O)c3)on2)cc1` [Compound 505] reads 253 to 254 °C; that for `O=C(O)c1cccc(-c2nc(-c3cccc(F)c3)no2)c1` [Compound 507], 221.5 to 223 °C.
For `O=C(O)c1cccc(-c2nc(-c3ccc(Cl)cc3)no2)c1` [Compound 508], the melting point is 299 to 300 °C.

The values are drawn from patent publication US9611230B2, “1,3,4-oxadiazole benzoic acid compounds and their use for nonsense suppression and the treatment of disease” (PTC Therapeutics, Inc., priority 2004, dated 2017).
